Assay results reported in US20250281633A1, “HER2 TARGETING FC ANTIGEN BINDING FRAGMENT-DRUG CONJUGATES” (MERCK PATENT GMBH, priority 2021, published 2025).

Key:
FcRn = assay: KD [nM]
From the text: Errors are standard errors from fitting using FortéBio data analysis software 9.1. Fitting quality is characterized by R^2. Data is derived from BLI sensorgrams represented in FIG. 22 and FIG. 23.

[1] = test system: HER2 positive (SKBR-3, HCC-1954) and HER2 negative (MDA-MB-468) cells; assay: Cellular binding analysis by flow cytometry; type: cell-based, human; details: 100 nM, 60 min, 4° C.
Procedure: Relative order of fluorescence intensity of distinct variants on HER2 positive cells correspond to their HER2 binding affinity. Cells were incubated with 100 nM of Fcab/antibody for 60 min at 4° C., washed twice with PBS-1% BSA, incubated for 30 min with 500 nM of AF488-labeled detection antibody (Jackson ImmunoResearch) at 4° C. in darkness, washed twice with PBS-1% BSA, and finally fluorescence intensity was measured applying an Attune NxT flow cytometer (Invitrogen™).

Row | Substance | Kd (FcRn) [nM] | cellular binding to HCC-1954 cells (in words) [1]
1 | huFc: native human Fc-based negative control [listing 1 of 2 here] | 524 ± 13 | –
2 | huFc: native human Fc-based negative control [listing 2 of 2 here] | – | binds only slightly
